Test results from paper PMC6816037 (Computational and Structural Biotechnology Journal, 2019).

Target: XIAP-BIR3 (Homo sapiens, UniProt P98170)
Assay: surface plasmon resonance
Format: binding

XIAP-BIR3, sequence (P98170 241-356 limits assumed): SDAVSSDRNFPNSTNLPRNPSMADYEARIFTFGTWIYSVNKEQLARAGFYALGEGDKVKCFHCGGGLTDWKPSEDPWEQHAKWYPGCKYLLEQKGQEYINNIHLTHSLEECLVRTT

SMILES: C[C@@H]1O[C@@H](O[C@H]2[C@H](Oc3cc(O)c4c(c3)O[C@H](c3ccc(O)c(O)c3)CC4=O)O[C@H](CO)[C@@H](O)[C@@H]2O)[C@H](O)[C@H](O)[C@H]1O [compound 10, neoeriocitrin]
- Kd: 13.3 µM
